Values of other authors as cited in patent US7045166B2, “Sweetener compositions containing fractions of inulin” (priority 1998, dated 2006).

How the values were obtained:
[1] = artificial sweetener, general statement
[2] = relative to sucrose (sugar)

heat stability [1]	SMILES	sweetness of an equivalent dose of sucrose [2]
heat stable	OC[C@H]1O[C@H](O[C@]2(CCl)O[C@H](CCl)[C@@H](O)[C@@H]2O)[C@H](O)[C@@H](O)[C@H]1Cl [Sucralose, sucralose]	600 times
–	COC(=O)[C@H](Cc1ccccc1)NC(=O)[C@H](CC(=O)O)NCCC(C)(C)C [Neotane]	8000 times
